Measured values: PubChem BioAssay (NCI)
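1) Cells in 96-well plates. 2) Compound, 48 h, 5 concentrations. 3) Linear interpolation between surrounding doses. 4) Unreached endpoint = highest concentration. GI50 = concentration required for 50% inhibition of growth. TGI: concentration producing complete growth inhibition.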

Key:
Assay in all cases: growth of human tumour cells (NCI), 48 h
[1] = system: A549 NSCLC
[2] = system: ACHN renal
[3] = system: HT29 colon
[4] = system: M14 melanoma
[5] = system: MALME-3M melanoma
[6] = system: NCI-H460 lung
[7] = system: SF-295 CNS
[8] = system: TK-10 renal
[9] = system: UO-31 renal
[10] = system: PC-3 prostate

| SMILES | TGI [1] [µM] | TGI [2] [µM] | TGI [3] [µM] | TGI [4] [µM] | TGI [5] [µM] | TGI [6] [µM] | TGI [7] [µM] | TGI [8] [µM] | TGI [9] [µM] | GI50 [1] [µM] | GI50 [2] [µM] | GI50 [3] [µM] | GI50 [4] [µM] | GI50 [6] [µM] | GI50 [10] [µM] | TGI [10] [µM] | GI50 [7] [µM] | GI50 [8] [µM] | GI50 [9] [µM] |
| --- | --- | --- | --- | --- | --- | --- | --- | --- | --- | --- | --- | --- | --- | --- | --- | --- | --- | --- | --- |
| CN(CCCN1C(=O)c2cccc3cc([N+](=O)[O-])cc(c23)C1=O)CCN(C)CCCN1C(=O)c2cccc3cc([N+](=O)[O-])cc(c23)C1=O | > 39.3 | > 39.3 | > 39.3 | > 39.3 | > 39.3 | > 39.3 | > 39.3 | > 39.3 | – | – | – | – | – | – | – | – | – | – | – |
| CCOC(=O)C(=O)Nc1c(C)cccc1C(C)(C)C | – | > 100 | > 100 | > 100 | > 100 | > 100 | > 100 | > 100 | > 100 | – | – | – | – | – | – | – | – | – | – |
| COc1cccc2c(SCC(=O)Nc3ccccc3-c3ccccc3NC(=O)CSc3c4ccccc4nc4c(OC)cccc34)c3ccccc3nc12 | > 100 | > 100 | > 100 | > 100 | – | > 100 | > 100 | > 100 | – | – | – | – | – | – | – | – | – | – | – |
| O=C(COC(=O)c1cccc2c(=O)c3ccccc3[nH]c12)Nc1ccc(Cl)cc1 | > 100 | > 100 | > 100 | > 100 | > 100 | > 100 | > 100 | 46.5 | > 100 | – | – | – | – | – | – | – | – | – | – |
| Cc1cc(-c2nc3n(c2/C=N/N=C(N)N)CCS3)c(C)s1 | 44.3 | 39.5 | 37.6 | 32.9 | – | 35.7 | 29 | > 100 | 36.8 | 15.7 | 20 | 17.4 | 18.9 | 19.6 | 13.1 | 27.7 | 15.6 | 33.6 | 17.8 |
| C=CC(=O)Nc1ccccc1CC(c1c[nH]c2ccccc12)c1c[nH]c2ccccc12 | 56.7 | – | 37.5 | 30.3 | 33.3 | – | 49.1 | 59.1 | 31.7 | – | – | – | – | – | – | – | – | – | – |
| O=C(O)/C(Cl)=C(Cl)/C=N/NC(=O)c1cc2ccccc2cc1O | > 100 | > 100 | > 100 | 56 | > 100 | > 100 | > 100 | > 100 | 6.36 | – | – | – | – | – | – | – | – | – | – |
| CCCCCN(CCCCC)C(=O)[C@H](CCC(=O)O)NC(=O)c1cc2ccccc2[nH]1 | > 100 | > 100 | > 100 | > 100 | > 100 | > 100 | > 100 | > 100 | > 100 | – | – | – | – | – | – | – | – | – | – |
| CC1(C2COC(=O)C2)SCCCS1 (stereo not given) | > 100 | > 100 | > 100 | > 100 | > 100 | > 100 | > 100 | > 100 | 28.1 | – | – | – | – | – | – | – | – | – | – |
| Cc1ccc(C2[C@H]3C(=O)N(c4ccc(Cc5ccc(N6C(=O)[C@@H]7ON(c8ccccc8)C(c8ccc(C)cc8)[C@@H]7C6=O)cc5)cc4)C(=O)[C@H]3ON2c2ccccc2)cc1 (stereo not given in full) | > 100 | > 100 | > 100 | > 100 | > 100 | > 100 | > 100 | – | > 100 | – | – | – | – | – | – | – | – | – | – |
| C[C@]12Cc3conc3C(O)=C1CC[C@@H]1C2CC[C@@]2(C)C1CC[C@]2(C)O (stereo not given in full) | > 100 | 89.5 | 89.4 | 36.2 | 59.2 | 36.3 | 74.3 | 71.9 | 50.3 | – | – | – | – | – | – | – | – | – | – |
| CCCS(=O)c1nc(COC(=O)NC)c(COC(=O)NC)n1C (stereo not given) | > 100 | – | > 100 | > 100 | > 100 | > 100 | > 100 | – | > 100 | – | – | – | – | – | – | – | – | – | – |
| COC(=O)c1ccc(C(=O)OC)c2nc3cc(Cl)ccc3nc12 | > 100 | > 100 | > 100 | > 100 | > 100 | > 100 | > 100 | > 100 | > 100 | – | – | – | – | – | – | – | – | – | – |
| COc1c(-c2ccc3c(c2)OCO3)oc2cc(O)cc(O)c2c1=O | > 100 | > 100 | > 100 | > 100 | – | > 100 | > 100 | > 100 | > 100 | – | – | – | – | – | – | > 100 | – | – | – |
| Nn1c(-c2cccc(Cl)c2)nc2ccccc2c1=O | > 100 | > 100 | > 100 | > 100 | > 100 | > 100 | > 100 | > 100 | > 100 | – | – | – | – | – | – | – | – | – | – |
| N#CC(C(=N/O)/C(=N\O)C(C#N)c1ccccc1)c1ccccc1 (stereo not given) | > 100 | > 100 | > 100 | > 100 | > 100 | > 100 | > 100 | > 100 | > 100 | – | – | – | – | – | – | – | – | – | – |

| SMILES | TGI [1] [µM] | TGI [2] [µM] | TGI [3] [µM] | TGI [4] [µM] | TGI [5] [µM] | TGI [6] [µM] | TGI [7] [µM] | TGI [8] [µM] | TGI [9] [µM] | GI50 [1] [µM] | GI50 [2] [µM] | GI50 [3] [µM] | GI50 [4] [µM] | GI50 [6] [µM] | GI50 [10] [µM] | TGI [10] [µM] | GI50 [7] [µM] | GI50 [8] [µM] | GI50 [9] [µM] |
| --- | --- | --- | --- | --- | --- | --- | --- | --- | --- | --- | --- | --- | --- | --- | --- | --- | --- | --- | --- |
| CC(=O)c1ccc2c3c1[C@H]1O[C@H]1c1cccc(c1-3)[C@@H]1O[C@H]21 | 9.32 | 3.79 | 7.81 | 3.38 | 3.07 | – | 18 | > 51.2 | 3.41 | – | – | – | – | – | – | – | – | – | – |
| CCn1cc(C(=O)N/N=C/c2cccs2)c(=O)c2cc(F)c(N3CCNC(C)C3)c(F)c21 (stereo not given) | 3.37 | 3.04 | 3.12 | – | – | 3.24 | 3.45 | 3.25 | 2.96 | 1.8 | 1.67 | 1.67 | – | 1.75 | 1.45 | 2.84 | 1.85 | 1.72 | 1.52 |
| Cc1ccc(C)c(NC(=O)C(=O)C2C(=O)N(c3ccccc3)N=C2N)c1 (stereo not given) | > 100 | > 100 | > 100 | > 100 | > 100 | > 100 | > 100 | > 100 | > 100 | – | – | – | – | – | – | – | – | – | – |
| CC(C)(C)[Si](C)(C)OCCc1ccccc1C1CC2(S(=O)(=O)c3ccccc3)ON1CC2S(=O)(=O)c1ccccc1 (stereo not given) | > 100 | > 100 | > 100 | > 100 | – | > 100 | > 100 | > 100 | > 100 | – | – | – | – | – | – | – | – | – | – |
| Cc1cc(Cl)ccc1N=C1NC(=O)C(CC(=O)Nc2cccc(C)c2C)S1 (stereo not given) | 96.3 | 73.6 | > 100 | 50.9 | 65.1 | > 100 | 81.2 | > 100 | 51.5 | – | – | – | – | – | – | – | – | – | – |
| CN(C)N=Nc1cccc(C(N)=O)c1 | > 100 | > 100 | > 100 | > 100 | > 100 | > 100 | > 100 | > 100 | > 100 | – | – | – | – | – | – | – | – | – | – |
| O=[N+]([O-])c1ccc(C2SCc3nc4ccccc4n32)cc1 (stereo not given) | > 100 | > 100 | > 100 | – | > 100 | > 100 | > 100 | > 100 | > 100 | – | – | – | – | – | – | – | – | – | – |
| COc1cc([C@@H]2OC(=O)C3C2C(=O)O[C@H]3c2ccc(O)c(OC)c2)ccc1O (stereo not given in full) | > 100 | > 100 | > 100 | > 100 | > 100 | > 100 | > 100 | > 100 | > 100 | – | – | – | – | – | – | – | – | – | – |
| O=C(Nc1ccc([N+](=O)[O-])cc1[N+](=O)[O-])C(=O)C(C(=O)c1ccc(Cl)c(Cl)c1)C1OC(=O)c2ccccc21 (stereo not given) | 73.7 | > 100 | 71.1 | – | > 100 | – | 40.7 | 93.7 | 80.9 | – | – | – | – | – | – | – | – | – | – |
| CCOC(=O)/C(C#N)=C\Sc1ccccc1 | > 100 | 47.1 | 84.4 | 35.6 | – | 83.1 | 48.5 | > 100 | 24.1 | – | – | – | – | – | – | – | – | – | – |
| COc1cc2c3c(n([C@@H]4CCOC4)c(=O)c2cc1OC)-c1cc2c(cc1C3=O)OCO2 | > 100 | – | > 100 | > 100 | – | – | 0.0219 | > 100 | > 100 | 0.0107 | – | 0.0141 | < 0.01 | – | – | – | < 0.01 | > 100 | < 0.01 |
| C[C@]12CC(C=O)C(=O)C(O)=C1CC[C@@H]1C2CC[C@@]2(C)C1CC[C@]2(C)O (stereo not given in full) | > 100 | 51.2 | 23.5 | 35 | 22 | 87 | 66.6 | 99.5 | 51.1 | – | – | – | – | – | – | – | – | – | – |
| COC(=O)C12C34C=CC5(CCC6(C=CC1(CC3)O6)C52C(=O)OC)O4 (stereo not given) | > 100 | > 100 | > 100 | – | > 100 | > 100 | > 100 | > 100 | – | – | – | – | – | – | – | – | – | – | – |
| O=C1C(Cl)=C(Cl)C(=O)N1c1cccc(C(F)(F)F)c1 | > 100 | > 100 | > 100 | > 100 | > 100 | > 100 | > 100 | > 100 | > 100 | – | – | – | – | – | – | – | – | – | – |
| CCCCCCCCC(C)CCCCCCCCC(=O)OCC(COP(=O)([O-])OCC[N+](C)(C)C)OC(=O)CCCCCCCCC(C)CCCCCCCC (stereo not given) | > 100 | > 100 | > 100 | > 100 | > 100 | > 100 | > 100 | > 100 | > 100 | – | – | – | – | – | – | – | – | – | – |
| CC(C)N1C(C)[C@@H](c2ccccc2)O[P@@]1(=O)CC1=CCCCC1 (stereo not given in full) | > 100 | > 100 | > 100 | > 100 | > 100 | > 100 | > 100 | > 100 | > 100 | – | – | – | – | – | – | – | – | – | – |
